Article PMC11167338, “Exploring the impact of trifluoromethyl (–CF3) functional group on the anti-cancer activity of isoxazole-based molecules: design, synthesis, biological evaluation and molecular docking analysis” (RSC Advances, 2024)

Tests used:
HEK-293 = experiment: MTT cytotoxicity on normal HEK-293 cells; assay type: cell-based; conditions: Homo sapiens, HEK293, normal cell line, 48 hours treatment, mean ± SD (n = 2)
Source text: We also investigated their in vitro cytotoxicity against a normal human embryonic kidney (HEK-293) cell line to determine their IC50.
(§1) The mouse triple-negative breast cancer cell line (4T1), a human luminal A breast cancer cell line (MCF-7), a human prostate cancer cell line (PC-3), and a normal human embryonic kidney cell line (HEK-293) were procured from the National Center for Cell Science (NCCS, Pune, India). Dulbecco's Modified Eagle Medium (DMEM) (Himedia Laboratories Pvt Ltd, Mumbai, India) was used to cultivate MCF-7, 4T1, PC-3, and HEK-293 cells. All the mentioned cell lines were cultured in Dulbecco's Modified Eagle Medium (DMEM) supplemented with 10% heat-inactivated fetal bovine serum (Himedia Laboratories Pvt Ltd, Mumbai, India) and 1% antibiotic (Pen strep: A001), Himedia Laboratories Pvt Ltd, Mumbai, India. Cells were grown in a humidified environment with 5% CO2 at 37 °C. The experiment was performed using the yellow dye MTT [3-(4,5-dimethylthiazol-2-yl)-2, 5-diphenyltetrazolium bromide].
(§2) The MTT assay protocol was used to determine the IC50 values of the final compounds against different types of cancer cell lines and their selectivity over normal human cell lines. Dilutions of various concentrations were made from the compounds' DMSO stock solutions in the appropriate media. With a control solution of less than 1% DMSO in the appropriate media, dilutions from 200 μM to 0.781 μM concentrations were prepared using the serial dilution method. Cells were subcultured in their respective complete media according to the ATCC protocol before being seeded on a sterile 96-well plate with around 100 μL per well and a cell density of about 1 × 10^4 cells per well and incubated overnight. The medium was aspirated the following day, and adherent cells were treated with the respective concentrations 200 μM to 0.781 μM. The cells were then cultured for 48 hours in presence of compounds in the growth medium. The medium was aspirated post-treatment, and 100 μL of a 5 mg mL^−1 MTT solution in phenol red-free media was added. This mixture was then incubated for around 3 hours to check for the production of formazan crystals. The MTT solution was withdrawn, and 150 μL of DMSO was added to the wells to dissolve the generated crystals. The absorbance was measured at 570 nm and 650 nm. The percent cell viability was calculated for the IC50 values using GraphPad Prism™ version 8.0.1, and the results were shown as a dose–response curve.

PC-3 = experiment: MTT anti-proliferative assay on PC-3; assay type: cell-based, human; conditions: for IC50: Homo sapiens, PC-3, MTT, 48 hours treatment, mean ± SD (n = 2)
Protocol: (§3) All synthesized molecules were tested for their anticancer activity using the MTT assay protocol against the murine mammary carcinoma cell line (4T1), the human breast cancer (MCF-7), and the prostatic small cell carcinoma (PC-3). These compounds were then assessed for their IC50 determination at various concentrations. According to this finding, all synthesized compounds have the ability to inhibit the proliferation of a variety of cancer cell lines. […] It is more biased for MCF-7 cells over other cancer cells tested. Further, we contemplated conducting additional research to assess their anti-cancer effectiveness and mechanism (Fig. 3).
as §1, §2

4T1 = experiment: MTT anti-proliferative assay on 4T1; assay type: cell-based, mouse; conditions: for IC50: Mus musculus, 4T1, MTT, 48 hours treatment, mean ± SD (n = 2)
Protocol: as §3, §1, §2

MCF-7 = experiment: MTT anti-proliferative assay on MCF-7; assay type: cell-based, human; conditions: for IC50: MTT, 48 hours treatment, mean ± SD (n = 2)
Protocol: as §3, §1, §2

MCF-7 cells [1] = experiment: Annexin-V/FITC-PI apoptosis assay (flow cytometry); assay type: cell-based, human; conditions: MCF-7, 48 h, at in vitro IC50
Protocol: Several studies have reported that anticancer drug molecules employ their cytotoxicity induced cell death via apoptotic pathways. […] These findings imply that the programmed cell death mechanism generated by the lead compound 2g causes considerable apoptosis in cancer cells.
In MCF-7 cells, an apoptosis assay was done using a TACs/Annexin V kit from Biolegend, USA. MCF-7 cells were seeded with a density of 5.0 × 10^4 cells per well in a flat-bottomed 12-well plate and allowed overnight for attachment. Following media aspiration, 48 hours of treatment with compound 2g and BG-45 at their in vitro IC50 values in MCF-7 cells were performed in triplicate. The cells were then trypsinized after being rinsed twice with ice-cold PBS. The trypsinized cells were then collected, centrifuged, and the obtained cell pellet was washed with ice-cold PBS before being resuspended in 100 μL of freshly prepared Annexin V reagent, which included 10 μL of 10× binding buffer, 1 μL of FITC, 10 μL of PI, and made up to 100 μL with double distilled water. Following a 30 minutes dark incubation period, these samples were diluted to 500 μL using 400 μL of 1× binding buffer. Following incubation, the samples were examined using flow cytometry (BDAria™ III, BD biosciences).

MCF-7 cells [2] = experiment: Cell cycle analysis (PI, flow cytometry); assay type: cell-based, human; conditions: MCF-7, 48 hours, at IC50 concentration
Protocol: In addition to the apoptosis assay, the cell cycle progression of MCF-7 cells was also investigated using the compound 2g. The cell population at different cell cycle phases was assessed using flow cytometry. […] These findings highlight that the lead compound 2g specifically impacts cell cycle regulation in the early phase compared to control and standard compound-treated cells (Fig. 6).
Flow cytometry was used to study the cell cycle of compound 2g and BG-45 using the BDAria™ III, a BD biosciences equipment, and the data was processed using Flow Jo software. For this objective, 5.0 × 10^4 MCF-7 cells were seeded onto 12 well plates and incubated overnight. The media was aspirated the other day, and the treatment was continued for another 48 hours after adding the required concentrations of compound 2g and BG-45 to the aspirated media. Following the treatment, the sample wells were rinsed with ice-cold PBS, trypsinized, and collected as a cell pellet. After two ice-cold PBS washes, the pellet was fixed with a dropwise addition of 70% ice-cold ethanol, which was then gently vortexed to create a single-cell suspension. Overnight, the fixed cells were stored at −20 °C. The samples were then centrifuged, and the resulting cell pellet was resuspended in 500 μL of the staining solution made from 20% w/v RNase, 2% w/v PI, and roughly 0.1% v/v Triton X 100 solution in PBS. The dissolved samples were examined using flow cytometry in the BDAria™ III, BD Biosciences, after being incubated for 30 min at room temperature in the dark.

MCF-7 cells [3] = experiment: Intracellular ROS generation (DCFH-DA); assay type: cell-based, human; conditions: for Fluorescence intensity (DCFH-DA, ImageJ): MCF-7, 48 h, IC50 dose
Source text: This can result from the increased metabolic demands of rapidly dividing cancer cells and mitochondrial dysfunction. Elevated ROS levels can also damage DNA, contributing to genomic instability and the development of genetic mutations that drive cancer progression. Chemotherapy drugs, for example, can generate ROS as a byproduct of their mechanism of action, causing increase DNA damage and cell death in cancer cells. As a result, we investigated whether the compound 2g could cause ROS production within cancer cells.
The generation of reactive oxygen species in MCF-7 cells was investigated using the 2-7-dichlorodihydroflourescein diacetate (DCFH-DA) assay. The non-fluorescent DCFH-DA enters the cells, where cellular esterase cleaves off the acetyl groups to produce DCFH. ROS transform the molecule from DCFH to DCF, which produces green light. […] Following incubation, old medium was removed, and cells were treated with 10 μM DCFH-DA (S0033-Beyotime) in accordance with the recommended technique for 10 min at 37 °C in complete darkness. The intensity of fluorescence was then measured with a Laser Scanning Confocal Microscope (LSCM) DMI8 (Leica Microsystems, Germany) at 63× magnification at 485 nm and 535 nm for excitation and emission wavelengths. […] In the meantime, the increase in fluorescence intensity was determined in comparison to the control. Image J was used to calculate the relative fluorescence intensity (%). One-way ANOVA was used to determine significance, and the graph was created in GraphPad Prism™ version 8.0.1.

MCF-7 cells [4] = experiment: Nuclear staining assay (DAPI and AO); assay type: cell-based, human; conditions: MCF-7, IC50, 48 hours, compared to control and BG-45
Protocol: A nuclear staining assay was done using DAPI and AO as staining dyes to evaluate the phenomena of apoptosis in cancer cells under a laser scanning confocal microscope (LSCM). […] The fluorescence pattern in AO staining changed from green (normal cellular DNA) to orange (nicked cellular DNA).
To measure the degree of cancer cell disintegration, a nuclear staining experiment was performed in MCF-7 cells using the lead compound 2g and the reference compound BG-45. […] The 12-well plate was incubated for 48 hours after treatment. The cells were fixed with 4% paraformaldehyde and then stained with DAPI and acridine orange. The degree of nuclear staining was examined using a Laser Scanning Confocal Microscope (LSCM) DMI8 (Leica Microsystems, Germany) at 63× magnification. Image J was used to calculate the percentage apoptosis. One-way ANOVA was used to determine significance, and the graph was plotted in GraphPad Prism™ version 8.0.1.

Row | Compound | IC50 (HEK-293) | IC50 (PC-3) | IC50 (4T1) | IC50 (MCF-7; Homo sapiens, MCF7, 48 h) | IC50 (MCF-7) | melting point | total apoptotic percentage (Q2 and Q4) (MCF-7 cells [1]) | cell population in G0/G1 phase (MCF-7 cells [2]) | cell population in G2/M phase (MCF-7 cells [2]) | cell population in S phase (MCF-7 cells [2]) | Fluorescence intensity (DCFH-DA, ImageJ) (MCF-7 cells [3]) | selectivity for other cancer cell lines over HEK-293 (PC-3; second value, fits PC-3 by ratio of Table 1 IC50) | nuclear morphology by DAPI and AO staining (MCF-7 cells [4]) | selectivity for other cancer cell lines over HEK-293 (4T1; first value, fits 4T1 by ratio of Table 1 IC50) | times more active than non-trifluoromethylated analogue 14 (MCF-7; MCF-7 IC50 compared) | selectivity for MCF-7 cells over HEK-293 (MCF-7; ratio of IC50 values) | relative fluorescence intensity compared to the control (MCF-7 cells [3]; MCF-7, IC50 dose)
1 | FC(F)(F)c1c(-c2cccs2)noc1/C=C/c1cccs1 [Compound 4, (E)-3-(thiophen-2-yl)-5-(2-(thiophen-2-yl)vinyl)-4-(trifluoromethyl)isoxazole] | 122 ± 0.16 µM | 17.99 ± 0.13 µM | 44.36 ± 0.2 µM | 13.7 µM | 13.71 ± 0.13 µM |  |  |  |  |  |  |  |  |  |  |  | 
2 | COc1ccc(-c2cc(-c3cccs3)on2)cc1OC [Compound 14, 3-(3,4-dimethoxyphenyl)-5-(thiophen-2-yl)isoxazole, reference compound] | 131.5 ± 0.13 µM | 30.21 ± 0.22 µM | 48.39 ± 0.19 µM | 19.72 ± 0.16 µM |  |  |  |  |  |  |  |  |  |  |  |  | 
3 | FC(F)(F)c1c(-c2cccs2)noc1-c1ccccc1 [Compound 2b] | 103.3 ± 0.17 µM | 13.6 ± 0.17 µM | 35.36 ± 0.19 µM | 9.76 µM | 9.76 ± 0.09 µM | 65 to 69 °C |  |  |  |  |  |  |  |  |  |  | 
4 | Nc1ccccc1NC(=O)c1cnccn1 [BG-45, reference compound] | 144.56 ± 0.14 µM | 28.67 ± 0.14 µM | 59.14 ± 0.17 µM | 43.6 µM | 43.55 ± 0.18 µM |  | 16.4 ± 1.1% | 63.6% | 24.4% | 14.2% | 18.02 |  |  |  |  |  | 
5 | c1ccc(-c2cc(-c3cccs3)on2)cc1 [Compound 9, 3-phenyl-5-(thiophen-2-yl)isoxazole] | 109.3 ± 0.19 µM | 14.5 ± 0.17 µM | 36.24 ± 0.2 µM | 10 µM | 9.99 ± 0.1 µM |  |  |  |  |  |  |  |  |  |  |  | 
6 | FC(F)(F)c1c(-c2ccccc2)noc1-c1ccccc1 [Compound 2a] | 114.9 ± 0.15 µM | 16.14 ± 0.15 µM | 37.83 ± 0.2 µM | 11.3 µM | 11.3 ± 0.13 µM | 60 to 65 °C |  |  |  |  |  |  |  |  |  |  | 
7 | c1ccc(-c2cc(-c3ccccc3)on2)cc1 [Compound 7, 3,5-diphenylisoxazole] | 118.7 ± 0.21 µM | 17.42 ± 0.17 µM | 41.58 ± 0.21 µM | 13 µM | 13.03 ± 0.13 µM |  |  |  |  |  |  |  |  |  |  |  | 
8 | FC(F)(F)c1c(-c2ccco2)noc1-c1cccs1 [Compound 2f] | 86.98 ± 0.23 µM | 10.3 ± 0.15 µM | 18.12 ± 0.15 µM | 5.32 µM | 5.32 ± 0.19 µM |  |  |  |  |  |  |  |  |  |  |  | 
9 | FC(F)(F)c1c(-c2ccccc2)noc1-c1cccs1 [Compound 2c] | 98.76 ± 0.24 µM | 11.7 ± 0.16 µM | 28.78 ± 0.19 µM | 8.19 ± 0.12 µM |  |  |  |  |  |  |  |  |  |  |  |  | 
10 | FC(F)(F)c1c(-c2cccs2)noc1-c1ccco1 [Compound 2e] | 94.55 ± 0.2 µM | 11.6 ± 0.14 µM | 23.5 ± 0.21 µM | 5.48 µM | 5.48 ± 0.14 µM | 66 to 70 °C |  |  |  |  |  |  |  |  |  |  | 
11 | FC(F)(F)c1c(-c2cccs2)noc1-c1c[nH]cc1-c1cccs1 [Compound 5, 3-(thiophen-2-yl)-5-(4-(thiophen-2-yl)-1H-pyrrol-3-yl)-4-(trifluoromethyl)isoxazole] | 84.86 ± 0.19 µM | 9.56 ± 0.18 µM | 14.96 ± 0.13 µM | 3.09 µM | 3.09 ± 0.11 µM |  |  |  |  |  |  |  |  |  |  |  | 
12 | COc1ccc(-c2noc(-c3cccs3)c2C(F)(F)F)cc1OC [Compound 2g, 3-(3,4-dimethoxyphenyl)-5-(thiophen-2-yl)-4-(trifluoromethyl)isoxazole] | 81.2 ± 0.17 µM | 7.16 ± 0.18 µM | 8.75 ± 0.09 µM | 2.64 µM | 2.63 ± 0.15 µM |  | 55.3 ± 0.9% | 68.6% | 31.5% | 1.11% | 31.63 | 11.3 fold | notable variation in cell shape and morphology | 9.2 fold | ~8 times | 30.8 fold | considerable increase
13 | FC(F)(F)c1c(-c2cccc3ccccc23)noc1-c1cccs1 [Compound 2d] | 111.8 ± 0.17 µM | 15.59 ± 0.14 µM | 37.18 ± 0.22 µM | 10.6 ± 0.19 µM |  |  |  |  |  |  |  |  |  |  |  |  | 
